# Data published in US12479809B2, “Hydrazone amide derivative and application thereof in preparation of medicaments for preventing and treating alopecia” (SHENZHEN CELL INSPIRE PHARMACEUTICAL DEVELOPMENT CO., LTD., priority 2019, dated 2025).
# Tested on: alopecia in mice
# Experiment: Animal experiment: therapeutic effect on alopecia in bilaterally ovariectomized mice after oral administration
# Format: in vivo
# Settings: for Cured / Ineffective / Ameliorated: number of mice of 10 per group; for Cured / Ineffective / Ameliorated / Total effective rate (%) / cure rate / back hair of mice after administration (FIGS. 3, 8 and 9): ovariectomized female mice, oral 10 mg/kg/day, 4 weeks; for Cured: cured = no difference with the normal group; for Ineffective: no difference from the model group; for Ameliorated: significant difference from the model group; for Total effective rate (%) / cure rate: 10 mice per group; for back hair of mice after administration (FIGS. 3, 8 and 9): compared with the normal group (FIG. 1); for promoting hair follicle growth: summary statement
# Procedure: Experiment method: 100 8-week-old female mice were divided into 10 groups with 10 mice in each group. They were randomly divided into a normal group, a model group and administration groups. The mice in the model group and the administration groups were fasted overnight and subjected to bilateral ovariectomy after anesthesia with 0.1 ml of 10% chloral hydrate. After the bilateral ovariectomy, penicillin injection 0.1 ml/per mouse was injected once a day for seven times to prevent infection. After 4 weeks of modeling, the experiment was carried out by oral administration. The medicament was prepared with normal saline, and administered 10 mg/kg/day to each mouse in the administration groups. The normal group and model group were given only normal saline. After 4 weeks of administration, the hair on the back of the mice was observed.
# Cured: Alopecia was completely cured, with no difference with the normal group.
# Ameliorated: Alopecia was ameliorated, with significant difference from the model group, but small difference from the normal group.
# Ineffective: Alopecia was not ameliorated, with no difference from the model group.
structure (smiles),measurement,setting,value
CC(=O)/C(=N\Nc1ccccc1C(=O)O)C(=O)Nc1cccc(O)n1 [Compound 30],Cured,,4
same,Ineffective,,3
same,Ameliorated,,3
same,Total effective rate (%),,70%
CC(=O)/C(=N\Nc1ccccc1C(=O)O)C(=O)Nc1ccccc1 [Compound 24],Cured,,10
same,Ineffective,,0
same,Ameliorated,,0
same,cure rate,,100%
same,Total effective rate (%),10 mg/kg/day,100%
same,"back hair of mice after administration (FIGS. 3, 8 and 9)",,completely recovered
same,promoting hair follicle growth,,significant advantages
CCOC(=O)c1sc(NC(=O)/C(=N/Nc2ccccc2C(=O)OC)C(C)=O)nc1C [Compound 4],Cured,,8
same,Ineffective,,0
same,Ameliorated,,2
same,Total effective rate (%),10 mg/kg/day,100%
same,promoting hair follicle growth,,significant advantages
CC(=O)/C(=N\Nc1ccccc1C(=O)O)C(=O)N1CCOCC1 [Compound 28],Cured,,10
same,Ineffective,,0
same,Ameliorated,,0
same,cure rate,,100%
same,Total effective rate (%),10 mg/kg/day,100%
same,"back hair of mice after administration (FIGS. 3, 8 and 9)",,completely recovered
same,promoting hair follicle growth,,significant advantages
CCOC(=O)c1sc(NC(=O)/C(=N/Nc2c(C#N)cccc2C(=O)O)C(C)=O)nc1C [Compound 12],Cured,,8
same,Ineffective,,1
same,Ameliorated,,1
same,Total effective rate (%),,90%
CCOC(=O)c1sc(NC(=O)/C(=N/Nc2ccc(F)cc2C(=O)O)C(C)=O)nc1C [Compound 10],Cured,,2
same,Ineffective,,5
same,Ameliorated,,3
same,Total effective rate (%),,50%
